The structures appear in SMILES notation. Structures can show the parent of a compound that is named as a salt. Bounds are passed on as bounds.

The first test relates to cultured human mast cells (CHMC). In words: CHMC low cell density IgE activation: tryptase assay. In kind it is cell-based. Conditions: Homo sapiens, Mast cell, low cell density CHMC, IgE activation, tryptase release, 3 pt; read-out: LD Tryptase, CHMC, IgE, 3 pt. The method, then:
Inhibition of degranulation was measured at both low and high cell density by quantifying the release of the granule specific factors tryptase, histamine and hexosaminidase. Inhibition of release and/or synthesis of lipid mediators was assessed by measuring the release of leukotriene LTC4 and inhibition of release and/or synthesis of cytokines was monitored by quantifying TNF-α, IL-6 and IL-13. Tryptase and hexosaminidase were quantified using fluorogenic substrates as described in their respective examples. […] The protocols of the various assays are provided below.
Pellet CHMC cells (980 rpm, 10 min) and resuspend in pre-warmed MT. Add 65 ul of cells to each 96-well plate. Depending on the degranulation activity for each particular CHMC donor, load 1000-1500 cells/well. Mix four times followed by a 1 hr incubation at 37° C. […] Stimulate cells by adding 25 ul of 6× anti-IgE solution to the appropriate plates. Add 25 ul MT to un-stimulated control wells. Mix twice following addition of the anti-IgE. Incubate at 37° C. for 30 minutes. […] Spin plates at 1000 rpm for 10 min to pellet cells. Transfer 25 ul of supernatant to a 96-well black bottom plate and add 100 ul of freshly diluted tryptase substrate solution to each well. Incubate plates at room temperature for 30 min.
For the compound `COc1cc(Nc2nc(Nc3cc(C)c(O)c(Cl)c3)ncc2F)cc(C(F)(F)F)c1` [Compound 336, N2-(3-Chloro-4-hydroxy-5-methylphenyl)-5-fluoro-N4-(3-methoxy-5-trifluoromethylphenyl)-2,4-pyrimidinediamine], the IC50 was less than 10 µM. For the compound `COc1cc(Nc2nc(Nc3cc(Cl)cc(Cl)c3)ncc2F)cc(C(F)(F)F)c1` [Compound 337], the IC50 is less than 10 µM. Still for that read-out and setting: next, `COc1cc(Nc2nc(Nc3cc(C)c(Cl)c(C)c3)ncc2F)cc(C(F)(F)F)c1` [Compound 339]: greater than 10 µM; `COc1cc(Nc2ncc(F)c(Nc3cc(OC)cc(OC)c3)n2)cc(OC)c1` [Compound 340]: less than 10 µM.

The same test, now with this note: Homo sapiens, Mast cell, low cell density CHMC, IgE activation, tryptase release, 8 pt; read-out: LD Tryptase, CHMC, IgE, 8 pt.
For the compound `COc1cc(Nc2ncc(F)c(Nc3cc(OC)cc(OC)c3)n2)cc(OC)c1` [Compound 340], the IC50 is less than 10 µM.

The test is the same for the next values; noted with them: Homo sapiens, Mast cell, low cell density CHMC, IgE activation, tryptase, 3 pt; read-out: LD Tryptase, CHMC, IgE, 3 pt.
Take `Cc1cc(C)cc(Nc2ncc(F)c(Nc3cc(C)cc(C)c3)n2)c1` [Compound 341, N2,N4-Bis (3,5-dimethylphenyl)-5-fluoro-2,4-pyrimidinediamine]: the IC50 is less than 10 µM. On the same count and under the same terms, next, `CC1(C)Oc2ccc(Nc3nc(Nc4ccc5ccn(C(N)=O)c5c4)ncc3F)cc2NC1=O` [Compound 348]: greater than 10 µM; `COc1cc(Nc2nc(Nc3cc(C)c(Cl)c(C)c3)ncc2F)cc(OC)c1` [Compound 349]: less than 10 µM; `COc1cc(Nc2nc(Nc3cc(Cl)cc(Cl)c3)ncc2F)cc(OC)c1` [Compound 352]: less than 10 µM. Consider `COc1cc(Nc2nc(Nc3cc(C)cc(C(F)(F)F)c3)ncc2F)cc(OC)c1` [Compound 353], for which the IC50 was less than 10 µM.

In the case of `COc1cc(Nc2nc(Nc3cc(OC)cc(C(F)(F)F)c3)ncc2F)cc(OC)c1` [Compound 355], the IC50 is less than 10 µM.

Regarding `COc1cc(Nc2ncc(F)c(Nc3ccc4c(c3)OCO4)n2)cc(C(F)(F)F)c1` [Compound 373, 5-Fluoro-N4-(3,4-methylenedioxyphenyl)-N2-(3-methoxy-5-trifluoromethylphenyl)-2,4-pyrimidinediamine], the IC50 was less than 10 µM.

Consider `Cc1cc(Nc2ncc(F)c(Nc3ccc4c(c3)OCO4)n2)cc(C(F)(F)F)c1` [Compound 374], for which the IC50 is greater than 10 µM. Still for that read-out and setting: next, `Fc1cnc(Nc2cc(Cl)cc(Cl)c2)nc1Nc1ccc2c(c1)OCO2` [Compound 375]: less than 10 µM; `COc1ccc(Nc2nc(Nc3cc(OC)c(Cl)cc3OC)ncc2F)cc1Cl` [Compound 377]: less than 10 µM.

In the case of `COc1cc(Nc2ncc(F)c(Nc3ccc4c(c3)OCCO4)n2)c(OC)cc1Cl` [Compound 379], the IC50 was less than 10 µM. Still for that read-out and setting: next, `COc1cc(Nc2nc(Nc3cc(OC)c(Cl)cc3OC)ncc2F)cc(OC)c1` [Compound 380]: less than 10 µM; `COC(=O)c1cc2cc(Nc3ncc(F)c(Nc4cc(OC)cc(OC)c4)n3)ccc2o1` [Compound 381]: less than 10 µM.

Consider `COc1cc(Nc2nc(Nc3cccc4cc(C(=O)O)[nH]c34)ncc2F)cc(OC)c1` [Compound 383], for which the IC50 was less than 10 µM.

The same test, now with this note: Homo sapiens, Mast cell, low cell density CHMC, IgE activation, tryptase, 8 pt; read-out: LD Tryptase, CHMC, IgE, 8 pt.
Regarding `CC1(C)Oc2ccc(Nc3nc(Nc4cc(CO)cc(CO)c4)ncc3F)cc2NC1=O` [Compound 344, N2-[3,5-Bis (hydoxymethylene)phenyl]-N4-(2,2-dimethyl-3-oxo-4H-benz[1,4]oxazin-6-yl)-5-fluoro-2,4-pyrimidinediamine], the IC50 was less than 10 µM. Still for that read-out and setting: next, `COc1cc(Nc2nc(Nc3ccc4c(c3)OCCO4)ncc2F)cc(OC)c1` [Compound 351, N4-(3,5-Dimethoxyphenyl)-N2-(3,4-ethylenedioxyphenyl)-5-fluoro-2,4-pyrimidinediamine]: less than 10 µM. The same measure, in the same setting: next, `Fc1cnc(Nc2cc(Cl)cc(Cl)c2)nc1Nc1ccc2c(c1)OCCO2` [Compound 354]: less than 10 µM; `COc1cc(Nc2ncc(F)c(Nc3ccc4c(c3)OCCO4)n2)cc(C(F)(F)F)c1` [Compound 356, N4-(3,4-Ethylenedioxyphenyl)-5-fluoro-N2-(3-methoxy-5-trifluoromethylphenyl)-2,4-pyrimidinediamine]: less than 10 µM; `COc1cc(Cl)cc(Nc2ncc(F)c(Nc3ccc4c(c3)NC(=O)C(C)(C)O4)n2)c1` [Compound 369, N2-(3-Chloro-5-methoxyphenyl)-N4-(2,2-dimethyl-3-oxo-4H-benz[1,4]oxazin-6-yl)-5-fluoro-2,4-pyrimidinediamine]: less than 10 µM. For the compound `COc1cc(Cl)cc(Nc2ncc(F)c(Nc3ccc4c(c3)OCCO4)n2)c1` [Compound 370], the IC50 was less than 10 µM. Same read-out and setting: next, `CNC(=O)c1cc2cccc(Nc3ncc(F)c(Nc4ccc5c(c4)OCO5)n3)c2[nH]1` [Compound 371, 5-Fluoro-N4-(3,4-methylenedioxyphenyl)-N2-[2-(N-methylamino)carbonylindol-7-yl]-2,4-pyrimidinediamine]: less than 10 µM; `COc1cc(Nc2ncc(F)c(Nc3ccc4c(c3)OCO4)n2)cc(OC)c1` [Compound 372, N2-(3,5-Dimethoxyphenyl)-5-fluoro-N4-(3,4-methylenedioxyphenyl)-2,4-pyrimidinediamine]: less than 10 µM. Same read-out and setting: next, `Cc1cc(C)cc(Nc2ncc(F)c(Nc3ccc4c(c3)OCO4)n2)c1` [Compound 376]: less than 10 µM. On the same count and under the same terms, next, `COc1ccc(Nc2ncc(F)c(Nc3ccc4c(c3)NC(=O)C(C)(C)O4)n2)cc1Cl` [Compound 378, N2-(3-Chloro-4-methoxyphenyl)-N4-(2,2-dimethyl-3-oxo-4H-benz[1,4]oxazin-6-yl)-5-fluoro-2,4-pyrimidinediamine p-Toluene Sulfonic Acid Salt]: less than 10 µM; `COC(=O)c1cc2cc(Nc3ncc(F)c(Nc4cc(OC)cc(OC)c4)n3)ccc2o1` [Compound 381]: less than 10 µM.

The same test, now with this note: low cell density CHMC, IgE activation, tryptase, 3 pt; read-out: LD Tryptase, CHMC, IgE, 3 pt.
Regarding `CNC(=O)n1ccc2ccc(Nc3ncc(F)c(Nc4ccc5c(c4)NC(=O)C(C)(C)O5)n3)cc21` [Compound 347, N4-(2,2-Dimethyl-3-oxo-4H-benz[1,4]oxazin-6-yl)-N2-[1-(N-methylaminocarbony)lindol-6-yl)-5-fluoro-2,4-pyrimidinediamine], the IC50 was less than 10 µM. Still for that read-out and setting: next, `COc1cc(Nc2ncc(F)c(Nc3ccc4c(c3)OC(F)(F)C(F)(F)O4)n2)cc(OC)c1` [Compound 357]: less than 10 µM. On the same count and under the same terms, next, `Cc1cc(Nc2ncc(F)c(Nc3ccc4c(c3)OC(F)(F)C(F)(F)O4)n2)cc(C)c1Cl` [Compound 358]: greater than 10 µM. On the same count and under the same terms, next, `Fc1cnc(Nc2cc(Cl)cc(Cl)c2)nc1Nc1ccc2c(c1)OC(F)(F)C(F)(F)O2` [Compound 360]: greater than 10 µM. Consider `COc1cc(Nc2ncc(F)c(Nc3ccc4c(c3)OC(F)(F)C(F)(F)O4)n2)cc(C(F)(F)F)c1` [Compound 361], for which the IC50 is less than 10 µM. Still for that read-out and setting: next, `Cc1cc(C)cc(Nc2ncc(F)c(Nc3ccc4c(c3)OC(F)(F)C(F)(F)O4)n2)c1` [Compound 362, N2-(3,5-Dimethyphenyl)-5-fluoro-N4-[3,4-(tetrafluoroethylenedioxy)phenyl]-2,4-pyrimidinediamine]: less than 10 µM; `Cc1cc(Nc2ncc(F)c(Nc3ccc4c(c3)OC(F)(F)C(F)(F)O4)n2)cc(C(F)(F)F)c1` [Compound 366, 5-Fluoro-N2-(3-methyl-5-trifluoromethyl)-N4-[3,4-(tetrafluoroethylenedioxy)phenyl]-2,4-pyrimidinediamine]: less than 10 µM. The same measure, in the same setting: next, `Fc1cnc(Nc2ccc3c(c2)OCCO3)nc1Nc1ccc2c(c1)OC(F)(F)C(F)(F)O2` [Compound 367]: less than 10 µM.

The same test, now with this note: low cell density CHMC, IgE activation, tryptase, 8 pt; read-out: LD Tryptase, CHMC, IgE, 8 pt.
Regarding `COc1cc(Nc2ncc(F)c(Nc3ccc4c(c3)OC(F)(F)C(F)(F)O4)n2)cc(OC)c1` [Compound 357], the IC50 was less than 10 µM. For `OCc1cc(CO)cc(Nc2ncc(F)c(Nc3ccc4c(c3)OC(F)(F)C(F)(F)O4)n2)c1` [Compound 359], the IC50 was less than 10 µM. `Cc1cc(C)cc(Nc2ncc(F)c(Nc3ccc4c(c3)OC(F)(F)C(F)(F)O4)n2)c1` [Compound 362, N2-(3,5-Dimethyphenyl)-5-fluoro-N4-[3,4-(tetrafluoroethylenedioxy)phenyl]-2,4-pyrimidinediamine]: the IC50 was greater than 10 µM. Take `Fc1cnc(Nc2ccc3c(c2)OCCO3)nc1Nc1ccc2c(c1)OC(F)(F)C(F)(F)O2` [Compound 367]: the IC50 is less than 10 µM. As for `COC(=O)C(C)(C)Oc1ccc(Nc2nc(Nc3cc(C)cc(C)c3)ncc2F)cc1Cl` [Compound 402, N4-[3-Chloro-4-(methoxycarbonyl-1,1-dimethylmethyleneoxy)phenyl]-N2-(3,5-dimethylphenyl)-5-fluoro-2,4-pyrimidinediamine], the IC50 was less than 10 µM. Same read-out and setting: next, `COC(=O)C(C)(C)Oc1ccc(Nc2nc(Nc3cc(C)cc(C)c3)ncc2F)cc1` [Compound 403, N2-(3,5-Dimethylphenyl)-N4-[4-(methoxycarbonyl-1,1-dimethylmethyleneoxy)phenyl]-5-fluoro-2,4-pyrimidinediamine]: less than 10 µM; `CCOC(=O)C(C)(C)Oc1ccc(Nc2nc(Cl)ncc2F)cc1Cl` [Compound 407, 2-Chloro-N4-[3-chloro-4-(ethoxycarbonyl-1,1-dimethylmethyleneoxy)phenyl]-5-fluoro-4-pyrimidineamine]: less than 10 µM. Regarding `CCOC(=O)C(C)(C)Oc1ccc(Nc2nc(Nc3cc(OC)cc(OC)c3)ncc2F)cc1Cl` [Compound 408, N4-[3-Chloro-4-(ethoxycarbonyl-1,1-dimethylmethyleneoxy)phenyl]-N2-(3,5-dimethoxyphenyl)-5-fluoro-2,4-pyrimidinediamine], the IC50 is less than 10 µM.

Source of the values: patent publication US20220073536A1 (Rigel Pharmaceuticals, Inc., priority 2003, published 2022).
